Measured values from US7517851B2, “Chlamydia oligosaccharides” (priority 1996, dated 2009).
Read-outs that look alike come from different tables or passages of the source.

Test system: Chlamydia trachomatis L2/434/Bu
Assay type: cell-based
Conditions: HeLa cells, maximum concentration (20 μg) tested

Q: What does the source list for oligomannose 9?
A: % INHIBITION (infectivity inhibition) (first of two separate sets of experiments): 64%; % INHIBITION (infectivity inhibition) (second of two separate sets of experiments): 62%
